Experimental findings from US10464922B2, “Metalloenzyme inhibitor compounds” (NQP 1598 LTD., priority 2015, dated 2019) are described below.

What is called MIC is the least concentration at which growth counts as inhibited. For orientation: IC50 means the concentration needed to halve the response being measured.

Test [1] relates to C. albicans (ATCC 90028). Briefly: Minimum inhibitory concentration, in vitro broth microdilution assay (CLSI M27-A2). In kind it is cell-based, Candida albicans. Particulars: Candida albicans, ATCC90028, 48 h, ATCC 90028; about 50% growth reduction; 2 days at 36° C.; range tested 8-0.0078 μg/mL; values given as ranges; read-out: Candida albicans MIC. In a few lines: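 CLSI M27-A2 broth microdilution: 11 two-fold DMSO dilutions into RPMI-1640+MOPS with 1×10^3–1×10^4 CFU/mL, 2 percent DMSO final. Incubated 2 days at 36° C; MIC from visual growth scoring, duplicates.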
Background: Broth dilution looks for growth in wells or tubes with falling amounts of substance.

In test [2] the test system is A. fumigatus. The test is described as follows: A. fumigatus MIC at 100% growth inhibition (CLSI M38-A2). The format is cell-based, Aspergillus fumigatus. The settings on record: Aspergillus fumigatus, 100% growth inhibition; range tested 8-0.0078 μg/mL; values given as ranges; read-out: Aspergillus fumigatus MIC. The protocol: A. fumigatus MICs were determined at 100% growth inhibition following CLSI guidelines at a concentration range of 8-0.0078 μg/mL (CLSI M38-A2).

Test [3] concerns Hedgehog signaling pathway Gli Reporter-NIH3T3 cells. The test is described as follows: Gli luciferase reporter assay, Hedgehog signalling pathway activity. In kind it is cell-based. The settings on record: mShh 1 μg/ml, 27 hours. How it is done:
Hedgehog signaling pathway Gli Reporter-NIH3T3 cells were cultured in DMEM medium with 10% Calf serum, 1% Penn-strep, 500 μg/ml of Geneticin.
To perform the Gli luciferase reporter assay, Gli Reporter—NIH3T3 cells were seeded at 25,000 cells per well into white clear-bottom 96-well microplate in 100 μl of growth medium. Cells were incubated at 37° C., and 5% CO2 for overnight. The next day, remove the medium from wells and add 45 μl of diluted inhibitor in assay medium (Opti-MEM Reduced Serum Medium+0.5% calf serum+1% non-essential amino acids+1 mM Na-pyruvate+10 mM HEPES+1% Pen/Strep) per well. Incubate cells at 37° C. in a CO2 incubator for 2 hours. Then add 5 μl of diluted mShh in assay medium to wells (final [mShh]=1 μg/ml). Add 50 μl of assay medium to cell-free control wells. Cells were treated for 27 hours. After treatment, cells were lysed and luciferase assay was performed using ONE-Step luciferase assay system: add 50 μl of One-Step Luciferase reagent per well and rock at room temperature for ˜30 minutes. Luminescence was measured using a luminometer (BioTek Synergy™ 2 microplate reader). Compounds of the present invention are active in blockade of hedgehog signalling.

Values after ≈ are worked out from the molar mass of the structure shown.

As for `CC[C@@H]([C@H](C)O)n1ncn(-c2ccc(N3CCN(c4ccc(-c5ccc(C(F)(F)C(O)(Cn6cccn6)c6cccc(Cl)c6)nc5)cc4)CC3)cc2)c1=O` (stereo partly drawn) [Example 126, 4-(4-(4-(4-(6-(2-(3-chlorophenyl)-1,1-difluoro-2-hydroxy-3-(1H-pyrazol-1-yl)propyl)pyridin-3-yl)phenyl)piperazin-1-yl)phenyl)-2-((2S,3S)-2-hydroxypentan-3-yl)-2,4-dihydro-3H-1,2,4-triazol-3-one], the minimal inhibitory concentration (MIC) in test [1] is 1 to 8 µg/mL (≈ 1.32 to 10.6 µM); in test [2] it was more than 8 µg/mL. For the same compound, the 50% inhibitory concentration (IC50) in test [3] was found to be 190 nM.
